The source of these data is patent publication US20240025906A1 (NEURON23, INC., priority 2022, published 2024).

pIC50, pKd: −log10 of the molar value. Read-outs that look alike come from different tables or passages of the source.

Test [1] concerns the target T1, TYK2 JH2 (Homo sapiens, UniProt P29597).
T1 construct: purchased DiscoverX (KINOMEscan KdELECT service); host or cells: E. coli BL21-derived (T7 phage display) or HEK-293
The test can be described thus: TYK2 JH2 binding assay (KINOMEscan KdELECT competitive binding). Particulars: TYK2 JH2 domain. In outline:
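Competition binding, KdELECT format. Kinase (phage-tagged, E. coli BL21-derived host; or HEK-293, DNA-tagged) + ligand-coated streptavidin beads + cpd, 1 h RT, final DMSO 0.9%. Wash, elute 30 min with 0.5 μM non-biotinylated ligand; qPCR readout. Kd: 11-pt, 3-fold series.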

The subject of test [2] is JAK1/TYK2 pSTAT5 (Tyr694/699) in THP-1 cell line. The test can be described thus: IFNa-stimulated JAK1/TYK2 pSTAT5 (Tyr694/699) inhibition cellular assay, AlphaLISA. It is filed as cell-based. As to conditions: Homo sapiens, THP-1 cells, IFNa-stimulated, AlphaLISA (Assay B). Put shortly:
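The readout is AlphaLISA signal at 615 nm for phospho-STAT5 in THP-1 lysates after IFNa stimulation (added at 100 ng/mL, 30 min, 37 °C). Cells had compound for 1 h beforehand across eight 6-fold concentrations up to 10000 nM final. IC50s are 4PL fits with bottom and Hill slope constrained.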
In general terms: In Alpha technology, singlet oxygen from a donor bead excites a nearby acceptor bead.

[3] abbreviates: KINOMEscan KdELECT (Assay A), read-out: Biochemical TYK2_JH2_Kd.
The mark [4] stands for this setting: read-out: Cellular THP1_IFNa-pSTATS_IC50.
Setting [5] is: DiscoverX KINOMEscan KdELECT (Assay A), read-out: Biochemical TYK2_DiscoverX_JH2_BND_Kd.
Setting [6] is: read-out: Cellular_THP1_IFNa-pSTATS_TYK2.

T1 sequence (P29597 589-875 limits assumed): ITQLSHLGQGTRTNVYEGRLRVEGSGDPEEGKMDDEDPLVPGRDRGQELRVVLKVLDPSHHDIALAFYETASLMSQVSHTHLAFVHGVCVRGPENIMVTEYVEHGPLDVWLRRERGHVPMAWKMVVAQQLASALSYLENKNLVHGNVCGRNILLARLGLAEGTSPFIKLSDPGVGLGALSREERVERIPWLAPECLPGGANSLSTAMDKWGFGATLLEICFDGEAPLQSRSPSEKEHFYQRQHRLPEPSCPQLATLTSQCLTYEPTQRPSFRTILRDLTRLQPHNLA

As for `CNc1ncc(-c2ccc(COC)cc2)c2cc(NC(=O)C3CC3)ncc12` [Example 169, N-(5-(4-(methoxymethyl)phenyl)-8-(methylamino)-2,7-naphthyridin-3-yl)cyclopropanecarboxamide], in test [1] (setting [3]), the pKd was ≥ 7.00. Also, the pIC50 in test [2] (setting [4]) was < 6.30.

For the molecule `CNc1ncc(-c2ccc(C(=O)N(C)C)cc2)c2cc(NC(=O)C3CC3)ncc12` [Example 170, 4-(6-(cyclopropanecarboxamido)-1-(methylamino)-2,7-naphthyridin-4-yl)-N,N-dimethylbenzamide], in test [1] (setting [3]), the pKd was ≥ 7.00. Besides, in test [2] (setting [4]), the pIC50 was ≥ 6.30.

For the molecule `CNc1ncc(-c2ccc(-c3ccccn3)cc2)c2cc(NC(=O)C3CC3)ncc12` [Example 171, N-(8-(methylamino)-5-(4-(pyridin-2-yl)phenyl)-2,7-naphthyridin-3-yl)cyclopropanecarboxamide], the pKd in test [1] (setting [3]) is ≥ 7.00. Also, the pIC50 in test [2] (setting [4]) is ≥ 6.30.

On to `CNc1ncc(-c2cccc(COCCOC)c2)c2cc(NC(=O)C3CC3)ncc12` [Example 172, N-(5-(3-((2-methoxyethoxy)methyl)phenyl)-8-(methylamino)-2,7-naphthyridin-3-yl)cyclopropanecarboxamide], for which, in test [1] (setting [3]), the pKd was ≥ 7.00. Further, the pIC50 in test [2] (setting [4]) is < 6.30.

Take `CNc1ncc(-c2ccc(-c3ccnn3C)cc2)c2cc(NC(=O)C3CC3)ncc12` [Example 173, N-(5-(4-(1-methyl-1H-pyrazol-5-yl)phenyl)-8-(methylamino)-2,7-naphthyridin-3-yl)cyclopropanecarboxamide]: the pKd in test [1] (setting [3]) was ≥ 7.00. Also, the pIC50 in test [2] (setting [4]) is ≥ 6.30.

For the molecule `C=C(c1ccccc1OC)c1cnc(NC)c2cnc(NC(=O)C3CC3)cc12` [Example 175], the pKd in test [1] (setting [3]) is 6.00 to 7.00. Further, the pIC50 in test [2] (setting [4]) was < 6.30.

Take `CNc1nccc2cc(NC(=O)C3CC3)nnc12` [Example 176, N-(8-(methylamino)pyrido[3,4-c]pyridazin-3-yl)cyclopropanecarboxamide]: the pKd in test [1] (setting [3]) was 6.00 to 7.00. Also, the pIC50 in test [2] (setting [4]) was < 6.30.

As to `CNc1ncc(Br)c2cc(NC(=O)C3CC3)nnc12` [Example 177, N-(5-bromo-8-(methylamino)pyrido[3,4-c]pyridazin-3-yl)cyclopropanecarboxamide], the pKd in test [1] (setting [3]) is ≥ 7.00. Moreover, the pIC50 in test [2] (setting [4]) was < 6.30.

Regarding `CNc1ncc(-c2ccccc2)c2cc(NC(=O)C3CC3)nnc12` [Example 178, N-(8-(methylamino)-5-phenylpyrido[3,4-c]pyridazin-3-yl)cyclopropanecarboxamide], in test [1] (setting [3]), the pKd was ≥ 7.00. Also, the pIC50 in test [2] (setting [4]) is < 6.30.

On to `CNc1ncc(-c2nc3ccc(F)cc3o2)c2cc(NC(=O)C3CC3)ncc12` [Example 179, N-(5-(6-fluorobenzo[d]oxazol-2-yl)-8-(methylamino)-2,7-naphthyridin-3-yl)cyclopropanecarboxamide], for which the pKd in test [1] (setting [3]) was ≥ 7.00. The pIC50 in test [2] (setting [4]) is ≥ 6.30.

Take `CNc1ncc(-c2nc3c(OC)cccc3o2)c2cc(NC(=O)C3CC3)ncc12` [Example 180, N-(5-(4-methoxybenzo[d]oxazol-2-yl)-8-(methylamino)-2,7-naphthyridin-3-yl)cyclopropanecarboxamide]: the pKd in test [1] (setting [3]) is ≥ 7.00. Besides, in test [2] (setting [4]), the pIC50 was ≥ 6.30.

Turning to `CNc1ncc(-c2nc3cc(F)ccc3o2)c2cc(NC(=O)C3CC3)ncc12` [Example 181, N-(5-(5-fluorobenzo[d]oxazol-2-yl)-8-(methylamino)-2,7-naphthyridin-3-yl)cyclopropanecarboxamide], in test [1] (setting [3]), the pKd was ≥ 7.00. In addition, the pIC50 in test [2] (setting [4]) was ≥ 6.30.

For `CNc1ncc(-c2nc3c(F)cccc3o2)c2cc(NC(=O)C3CC3)ncc12` [Example 184, N-(5-(4-fluorobenzo[d]oxazol-2-yl)-8-(methylamino)-2,7-naphthyridin-3-yl)cyclopropanecarboxamide], the pKd in test [1] (setting [3]) was ≥ 7.00. For the same molecule, in test [2] (setting [4]), the pIC50 was ≥ 6.30.

`CNc1ncc(-c2nc3cc(N4CCC4)ccn3n2)c2cc(NC(=O)C3CC3)ncc12` [Example 188, N-(5-(7-(azetidin-1-yl)-[1,2,4]triazolo[1,5-a]pyridin-2-yl)-8-(methylamino)-2,7-naphthyridin-3-yl)cyclopropanecarboxamide]: the pKd in test [1] (setting [3]) is ≥ 7.00. Besides, the pIC50 in test [2] (setting [4]) was ≥ 6.30.

Consider `[2H]C([2H])([2H])Oc1ccc2oc(-c3cnc(NC)c4cnc(NC(=O)C5CC5)cc34)nc2c1` [Example 195, N-(5-(5-(methoxy-d3)benzo[d]oxazol-2-yl)-8-(methylamino)-2,7-naphthyridin-3-yl)cyclopropanecarboxamide], for which the pKd in test [1] (setting [5]) was ≥ 7.00. Also, the pIC50 in test [2] (setting [6]) is ≥ 6.30.

`CNc1ncc(-c2nc3cc(OC4CN(C(=O)OC(C)(C)C)C4)ccc3o2)c2cc(NC(=O)C3CC3)ncc12` [Example 196, tert-butyl 3-((2-(6-(cyclopropanecarboxamido)-1-(methylamino)-2,7-naphthyridin-4-yl)benzo[d]oxazol-5-yl)oxy)azetidine-1-carboxylate]: in test [1] (setting [5]), the pKd was ≥ 7.00. For the same molecule, the pIC50 in test [2] (setting [6]) was ≥ 6.30.

On to `CNc1ncc(-c2nc3cc(OC4CNC4)ccc3o2)c2cc(NC(=O)C3CC3)ncc12` [Example 197, N-(5-(5-(azetidin-3-yloxy)benzo[d]oxazol-2-yl)-8-(methylamino)-2,7-naphthyridin-3-yl)cyclopropanecarboxamide], for which, in test [1] (setting [5]), the pKd is ≥ 7.00. Further, the pIC50 in test [2] (setting [6]) was ≥ 6.30.

For the molecule `CNc1ncc(-c2nc3cc(OC4CN(C)C4)ccc3o2)c2cc(NC(=O)C3CC3)ncc12` [Example 198, N-(8-(methylamino)-5-(5-((1-methylazetidin-3-yl)oxy)benzo[d]oxazol-2-yl)-2,7-naphthyridin-3-yl)cyclopropanecarboxamide], the pKd in test [1] (setting [5]) is ≥ 7.00. Also, the pIC50 in test [2] (setting [6]) is ≥ 6.30.

For `CNc1ncc(-c2nc3cc(O[C@H]4C[C@H](OC)C4)ccc3o2)c2cc(NC(=O)C3CC3)ncc12` [Example 199, N-(5-(5-((1r,3r)-3-methoxycyclobutoxy)benzo[d]oxazol-2-yl)-8-(methylamino)-2,7-naphthyridin-3-yl)cyclopropanecarboxamide], in test [1] (setting [5]), the pKd was ≥ 7.00. The pIC50 in test [2] (setting [6]) was ≥ 6.30.

As to `CNc1ncc(-c2nc3cc(O[C@H]4C[C@@H](OC)C4)ccc3o2)c2cc(NC(=O)C3CC3)ncc12` [Example 200, N-(5-(5-((1s,3s)-3-methoxycyclobutoxy)benzo[d]oxazol-2-yl)-8-(methylamino)-2,7-naphthyridin-3-yl)cyclopropanecarboxamide], in test [1] (setting [5]), the pKd is ≥ 7.00. The pIC50 in test [2] (setting [6]) was ≥ 6.30.

Take `CNc1ncc(-c2nc3c(COC)cccc3o2)c2cc(NC(=O)C3CC3)ncc12` [Example 201, N-(5-(4-(methoxymethyl)benzo[d]oxazol-2-yl)-8-(methylamino)-2,7-naphthyridin-3-yl)cyclopropanecarboxamide]: the pKd in test [1] (setting [5]) was ≥ 7.00. The pIC50 in test [2] (setting [6]) is ≥ 6.30.

Take `CNc1ncc(-c2nc3cc(OC)c(OC)cc3o2)c2cc(NC(=O)C3CC3)ncc12` [Example 202, N-(5-(5,6-dimethoxybenzo[d]oxazol-2-yl)-8-(methylamino)-2,7-naphthyridin-3-yl)cyclopropanecarboxamide]: the pKd in test [1] (setting [5]) is ≥ 7.00. For the same molecule, in test [2] (setting [6]), the pIC50 is ≥ 6.30.

Regarding `CNc1ncc(-c2nc3ccc(OC)cc3o2)c2cc(NC(=O)C3CC3)ncc12` [Example 203, N-(5-(6-methoxybenzo[d]oxazol-2-yl)-8-(methylamino)-2,7-naphthyridin-3-yl)cyclopropanecarboxamide], the pKd in test [1] (setting [5]) was ≥ 7.00. In addition, the pIC50 in test [2] (setting [6]) was ≥ 6.30.

As for `CNc1ncc(-c2nc3c(Cl)cccc3o2)c2cc(NC(=O)C3CC3)ncc12` [Example 204, N-(5-(4-chlorobenzo[d]oxazol-2-yl)-8-(methylamino)-2,7-naphthyridin-3-yl)cyclopropanecarboxamide], the pKd in test [1] (setting [5]) was ≥ 7.00. The pIC50 in test [2] (setting [6]) was ≥ 6.30.

Turning to `CNc1ncc(-c2nc3cccc(C)c3o2)c2cc(NC(=O)C3CC3)ncc12` [Example 205, N-(8-(methylamino)-5-(7-methylbenzo[d]oxazol-2-yl)-2,7-naphthyridin-3-yl)cyclopropanecarboxamide], the pKd in test [1] (setting [5]) was ≥ 7.00. In test [2] (setting [6]), the pIC50 is ≥ 6.30.

`CNc1ncc(-c2nc3ccc(C)cc3o2)c2cc(NC(=O)C3CC3)ncc12` [Example 206, N-(8-(methylamino)-5-(6-methylbenzo[d]oxazol-2-yl)-2,7-naphthyridin-3-yl)cyclopropanecarboxamide]: in test [1] (setting [5]), the pKd is ≥ 7.00. Further, the pIC50 in test [2] (setting [6]) was ≥ 6.30.

As for `CNc1ncc(-c2nc3cc(C)ccc3o2)c2cc(NC(=O)C3CC3)ncc12` [Example 207, N-(8-(methylamino)-5-(5-methylbenzo[d]oxazol-2-yl)-2,7-naphthyridin-3-yl)cyclopropanecarboxamide], in test [1] (setting [5]), the pKd was ≥ 7.00. Besides, the pIC50 in test [2] (setting [6]) is ≥ 6.30.

Take `CNc1ncc(-c2nc3cccc(OC)c3o2)c2cc(NC(=O)C3CC3)ncc12` [Example 208, N-(5-(7-methoxybenzo[d]oxazol-2-yl)-8-(methylamino)-2,7-naphthyridin-3-yl)cyclopropanecarboxamide]: in test [1] (setting [5]), the pKd is ≥ 7.00. In test [2] (setting [6]), the pIC50 was ≥ 6.30.
